The values that follow are results of earlier work, collected in patent publication US7824714B2, “Chinese herb extract for treating dementia and preparation method thereof” (Development Center for Biotechnology, priority 2008, dated 2010).

Each structure is given as a SMILES string.

One data set relates to brain cells. As to conditions: animal experiments.
Data set [1] has as its system mice having scopolamine dementia and Aβ dementia.

On to `OC[C@H]1O[C@@H](Oc2c(O)cc(O)cc2C=Cc2ccc(O)cc2)[C@H](O)[C@@H](O)[C@@H]1O` [stilbene glucoside compound, 3,4′,5-trihydroxy-2-stilbenyl beta-D-glucoside], for which, in the data set on brain cells, the “damage of brain cells caused by β-amyloid protein and hydrogen peroxide” value is listed as “capable of preventing”. Moreover, the memory capacity result in data set [1] is “increasing”.
